pEC50: −log10 of the molar value.
How the values were obtained:
[1] = system: HCV Subgenomic Replicon; assay: HCV-Huh-5-2 replicon cell assay (luciferase); assay type: cell-based, Hepatitis C virus; conditions: HCV subgenomic replicon in Huh-5-2 cells, 72 hours, luciferase; read-out: EC50 (concentration required to inhibit luciferase activity in the replicon system by 50%)
Procedure: (§1) Huh-5-2 cells [a cell line with a persistent HCV replicon I3891uc-ubi-neo/NS3-3′/5.1; replicon with firefly luciferase-ubiquitin-neomycin phosphotransferase fusion protein and EMCV-IRES driven NS3-5B HCV polyprotein] was cultured in RPMI medium (Gibco) supplemented with 10% fetal calf serum, 2 mM L-glutamine (Life Technologies), 1× non-essential amino acids (Life Technologies); 100 IU/ml penicillin and 100 ug/ml streptomycin and 250 ug/ml G418 (Geneticin, Life Technologies). Cells were seeded at a densitiy of 7000 cells per well in 96 well View Plate™ (Packard) in medium containing the same components as described above, except for G418. Cells were allowed to adhere and proliferate for 24 hr. At that time, culture medium was removed and serial dilutions of the test compounds were added in culture medium lacking G418. Interferon alfa 2a (500 IU) was included as a positive control. Plates were further incubated at 37° C. and 5% CO2 for 72 hours. Replication of the HCV replicon in Huh-5 cells results in luciferase activity in the cells. Luciferase activity is measured by adding 50 μl of 1× Glo-lysis buffer (Promega) for 15 minutes followed by 50 ul of the Steady-Glo Luciferase assay reagent (Promega). Luciferase activity is measured with a luminometer and the signal in each individual well is expressed as a percentage of the untreated cultures. Parallel cultures of Huh-5-2 cells, seeded at a density of 7000 cells/well of classical 96-well cell culture plates (Becton-Dickinson) are treated in a similar fashion except that no Glo-lysis buffer or Steady-Glo Luciferase reagent is added. Instead the density of the culture is measured by means of the MTS method (Promega).

[2] = system: Huh-5-2 cells; assay: Cytostatic effect on Huh-5-2 cells (MTS method, parallel cultures); assay type: cell-based; conditions: 72 hours, read-out: CC50 (concentration required to inhibit the proliferation of exponentially growing Huh-5-2 cells by 50%)
Procedure: as §1

## CC(=O)OCC1OC(n2c(SCc3cc4cc(Br)ccc4oc3=O)nc3cc(Cl)c(Cl)cc32)C(OC(C)=O)C(OC(C)=O)C1OC(C)=O (centres unmarked) [Compound 7g, Acetic acid 3,5-diacetoxy-2-acctoxymethyl-6-[2-(6-bromo-2-oxo-2H-chromen-3-ylmethylsulfanyl)-5,6-dichloro-benzoimidazol-1-yl]-tetrahydro-pyran-4-yl ester]
[1]
  pEC50: 5.39
[2]
  CC50: > 64.8 µM
